According to patent US20180104332A1, “INSULIN-LIKE GROWTH FACTOR INHIBITOR AND CHEMOTHERAPEUTIC AGENT FOR USE IN CANCER THERAPY” (The University of Liverpool, priority 2015, published 2018):

B1: BI 836845: IGF blocking antibody, in phase 1 clinical trials for various solid cancers (antibody, chains of the INN, looked up, V domains shown)
VH: QVELVESGGGLVQPGGSLRLSCAASGFTFTSYWMSWVRQAPGKGLELVSSITSYGSFTYYADSVKGRFTISRDNSKNTLYLQMNSLRAEDTAVYYCARNMYTHFDSWGQGTLVTVSS
VL: DIVLTQPPSVSGAPGQRVTISCSGSSSNIGSNSVSWYQQLPGTAPKLLIYDNSKRPSGVPDRFSGSKSGTSASLAITGLQSEDEADYYCQSRDTYGYYWVFGGGTKLTVL

Tests used:
pancreatic cancer = details: patients diagnosed with pancreatic cancer; cited from earlier work
[1] = system: KPC-derived orthotopic pancreatic tumors; assay: Syngeneic orthotopic pancreatic cancer model, gemcitabine and IGF blocking antibody BI 836845; type: in vivo, mouse; details: for effect on tumor growth (tumor weights): i.p. twice a week for two weeks, gemcitabine 100 mg/Kg, BI 836845 100 mg/Kg, vs control IgG, FIG. 47b
Experimental: FIG. 47 illustrates a combination with gemcitabine with IGF blockade inhibites tumor growth in the syngeneic orthotopic pancreatic cancer model: (a) KPC^luc/zsGreen(zsGreen)-derived pancreatic tumor cells were orthotopically implanted into the pancreas of syngeneic recipient mice, and mice were treated, starting at day 7 after tumor implantation, twice a week i.p., with either control IgG antibody, gemcitabine (100 mg/Kg), IGF blocking antibody BI 836845 (100 mg/Kg) or a combination of gemcitabine with IGF blocking antibody. (b) Representative images of tumors and tumor weights are shown (n=6 mice per group). (c) Pancreatic tumors were digested and percentage of intra- tumoral F4/80+ macrophages, Ly6C+/Ly6G− inflammatory monoctyes, Gr1+/CD11b+ neutrophils and myeloid derived suppressor cells (MDSCs) and CD8+ cytotoxic T cells (CTCs), among CD45+ immune cells, were quantified by flow cytometry (n=3). (d) Percentage of intra-tumoral CD206− M1-like macrophages and CD206+M2-like macrophages, among F4/80+ macrophages, were quantified by flow cytometry (n=3). […] (f) Quantification of cleaved caspase-3 positive apoptotic cells in PDA tumors treated with IgG (control), gemcitabine, IGF blocking antibody BI 836845 or gemcitabine+BI 836845 (n=6 fields counted).
All animal experiments were performed in accordance with current UK legislation under an approved project licence (reference number: 403725). […] Tumor tissues were analyzed by immunohistochemical and immunofluorescent staining for phospho-lnsulin/IGFR expression, EpCAM expression, macrophage infiltration, fibroblast activation and apoptosis using the following antibodies: phospho-insulin/IGF receptor antibody (R&D), EpCAM (BD Pharmingen), CD68 antibody (DAKO), CD206 (abcam), αSMA (abcam) and cleaved caspase 3 (Cell signaling). Expression of IGF-1, IGF-2, Arginase, IL-10, IFNγ and IL-12 in intra-tumoral isolated macrophages were determined by qPCR. […]

Insulin/IGF receptor = assay: Immunoblotting of Insulin/IGF receptor signalling in cancer cells; type: cell-based, human, mouse; details: Suit-2, KPC-derived and Py230 cells, 3 hours; FIG. 27
Experimental: FIG. 27 illustrates Immunoblot analysis of phospho-lnsulin/IGF receptor, phospho-Insulin receptor, Insulin receptor, phospho- IGF receptor 1, IGFR1 and tubulin, in human pancreatic cancer Suit-2 cells, murine primary KPC pancreatic cancer and
Py230 breast cancer derived cells, serum starved, exposed to MCM or exposed to recombinant IGF for 3 hours.
FIG. 28 illustrates that blockade of IGF impairs macrophage-mediated activation of Insulin/IGF receptor and downstream signalling molecules IRS1, IRS2 and AKT in cancer cells by Immunoblotting analysis of Suit-2 cells untreated or treated with MCM or MCM+IGF blocking antibody for 3 hours.
Cells were serum starved or treated with macrophage conditioned media for 30 min, 2 h or 3 h, harvested and lysed in RIPA buffer (150 mM NaCl, 10 mM Tris-HCl pH 7.2, 0.1% SDS, 1% Triton X-100, 5 mM EDTA) supplemented with a complete protease inhibitor mixture (SIGMA), a phosphatase inhibitor cocktail (Invitrogen), 1 mM PMSF and 0.2 mM Na3VO4. Cell lysates (300 μg) were analyzed with the Human Phospho-RTK Array Kit (R&D Systems). Protein samples were resuspended in 4xLaemmli sample buffer, and immunoblotting was performed on nitrocellulose membranes blocked in 5% BSA or milk (depending on the antibody) in Tris-buffered saline Tween-20 (TBST). […]

[2] = system: MDA-MB-231 breast cancer cells; assay: Cell death by flow cytometry under nab-paclitaxel with MCM or recombinant IGF; type: cell-based, human; details: recombinant IGF 100 ng/ml; 500 nM nab-paclitaxel, 48 hours; FIG. 33
Experimental: FIG. 33 illustrates human breast MDA-MB-231 cancer cells cultured in the presence or absence of MCM or recombinant IGF and treated with 500 nM nab-paclitaxel for 48 hours. Percentage of cell death was quantified by flow cytometry. Error bars represent s.d. (n=3); *two tailed p value≤0.05, **two tailed p value≤0.01 using a student's t-test.
MDA-MB-231 cells were pretreated for 3 hours with human macrophage derived factors (MDF) or recombinant IGF (100 ng/ml) followed by 500 nM of nab-paclitaxel.

[3] = system: Suit-2 and KPC-derived pancreatic cancer cells; assay: Cell death by flow cytometry (annexinV/PI) under chemotherapy with MCM, IGF blocking antibody or recombinant IGF; type: cell-based; details: recombinant IGF 100 ng/ml, 24 hours, FIGS. 30-32
Experimental: FIG. 29 illustrates quantification of cell death in Suit-2 cells treated with gemcitabine, MCM and IGF blocking antibody for 24 hours. Error bars represent s.d. (n=3); **two tailed p value≤0.01, *two tailed p value≤0.05 using a student's t-test.
FIG. 30 illustrates primary mouse KPC-derived pancreatic cancer cells were untreated or treated with gemcitabine, MCM, IGF blocking antibody or recombinant IGF for 24 hours and percentage of cell death was quantified by flow cytometry. Error bars represent s.d. (n=3); **two tailed p value≤0.01 using a student's t-test.
FIG. 32 illustrates KPC-derived cells which were cultured in the presence or absence of MCM or recombinant IGF and treated with 100 or 1000 nM nab-paclitaxel for 24 hours. Percentage of cell death was quantified by flow cytometry. Error bars represent s.d. (n=3); *two tailed p value≤0.05 using a student's t-test.
Suit-2 and KPC cells were cultured in serum free or DMEM with 2% FBS respectively, pretreated for 3 h with human or mouse macrophage conditioned media respectively, and IGF-1 IgG blocking antibody (abcam 9572) at 10 μg/ml or IgG antibody as control, followed by Gemcitabine at 200 nM. Cells were harvested after 24 hours, and subjected to flow cytometry. […] Apoptosis was evaluated by flow cytometry (FACS Calibur, Becton Dickinson). […]

[4] = system: Suit-2 and KPC derived pancreatic cancer cells; assay: Cell death and cell cycle analysis of cancer cells treated with the agents alone; type: cell-based, human, mouse; details: no chemotherapy; antibody 10 μg/ml, recombinant IGF 100 ng/ml; FIGS. 52 and 53
Experimental: FIG. 52 illustrates quantification of cell death in Suit-2 cells exposed to 200 nM gemcitabine, MCM and/or IGF blocking antibody (10 μg/ml). Error bars represent s.d. (n=3); **two tailed p value≤0.01 using a student's t-test.
FIG. 53 illustrates cell cycle analysis of primary mouse KPC derived pancreatic cancer cells exposed to MCM, IGF blocking antibody ([…]) or recombinant IGF (100 ng/ml).
KPC derived pancreatic cancer cells were treated with isogenic mouse MDFs, IGF1/2 blocking antibody (abcam 9572) at 10 μg/ml or recombinant IGF (Peprotech 100-11) at 100 ng/ml. Cells were harvested, fixed with methanol, treated for 45 min with 10 μg/ml of RNase, resuspended in PBS containing 10 μg/ml of propidium iodide and subjected to flow cytometry.

Molecule	patients treated with gemcitabine who die within 5 years of commencing treatment (pancreatic cancer) [%]	effect on tumor growth (tumor weights) [1]	Insulin/IGFR signaling in pancreatic and breast cancer cells (Insulin/IGF receptor)	resistance of breast cancer cells to nab-paclitaxel [2]	resistance of pancreatic cancer cells to gemcitabine and nab-paclitaxel [3]	survival or proliferation of cancer cells, agent alone [4]	phospho-Insulin/IGFR expression in tumors ([1]; immunohistochemical analysis, FIG. 47e)
Nc1ccn([C@@H]2O[C@H](CO)[C@@H](O)C2(F)F)c(=O)n1 [gemcitabine]	95	no effect					
recombinant IGF: recombinant IGF (Peprotech 100-11) used at 100 ng/ml			activates Insulin/IGFR signaling	sufficient to mediate resistance	sufficient to mediate resistance	did not alter the survival or proliferation	
B1		modest effect					decreased
